According to patent US20100311726A1, “REDUCTION OF BETA-AMYLOID LEVELS BY TREATMENT WITH THE SMALL MOLECULE DIFFERENTIATION-INDUCING FACTOR” (priority 2007, published 2010):

Legend:
CHO-CAB cells = assay: Confocal fluorescence microscopy of CHO-CAB cells; format: cell-based, Chinese Hamster; conditions: 30 μM overnight
Experimental: CHO-CAB cells were grown on multi-well chamber slides and treated overnight with 30 μM DIF-1. The cells were fixed with 4% paraformaldehyde/PBS, permeabilized with 0.1% Triton X-100/PBS for 10 min and blocked with 5% goat serum/PBS. APP (rabbit C-terminal 8717), PDI (ER marker), GM130 (golgi marker), and ubiquitin were detected using their corresponding antibodies and Alexa Fluor-conjugated secondary antibodies. Nuclei were stained with Hoechst 33342 (Molecular Probes/Invitrogen). Confocal fluorescence images were obtained using an Olympus DSU/IX70 spinning disc confocal microscope and processed using IPLab software (Scanalytics/BD Biosciences).
Next, the effect of DIF-1 on APP trafficking and subcellular distribution was assessed. Cells were fixed with 4% paraformaldehyde/PBS, permeabilized with 0.1% Triton X-100/PBS and blocked with 5% goat serum/PBS. Confocal microscopy of CHO-CAB cells stained with APP antibodies together with the ER marker PDI or golgi marker GM130 confirmed that APP primarily co-localized with GM130 and PDI (FIG. 14A). […] ER structure upon DIF-1 treatment became highly vacuolated but to a varying degree within populations of cells.

[1] = system: APP phosphorylation on residue T668; assay: APP T668 phosphorylation by western blot; format: cell-based, human; conditions: CHO-7W and CHO-CAB; DAPT alone, or DAPT with DIF-1 (30 μM)
Experimental: Next, whether or not DIF-1 treatment affected the degree of T668 phosphorylation was examined by western blot (FIG. 11). Briefly, effects of DIF-1 on APP T668 phosphorylation were compared between vehicle-treated control and 250 nM of DAPT identically in each cell line. Western analysis of 15 μg of total protein was probed overnight at 4° C. with anti-APP Cterminal antibody (C66-676-695) (1:5000) and then detected on film using ECL and HRP-conjugated secondary antibodies (1:5000). […] This band has also been detected in other CHO lines where APP expression is high (˜3 fold) and by different C-terminal APP antibodies (Ab8717-676-695; except 6E10 which recognizes the N-terminal residues 1-17 of the Aβ sequence. For FIG. 11A, cells were treated with DAPT, and DAPT+DIF then were probed with anti-APP antibody (C66). For FIG. 11B, CHO-7W cells were treated with DAPT, and DAPT+DIF, and then probed with polyclonal anti-P668 APP antibody (1:1000) overnight at 4° C. in 5% BSA. After washing, cells were probed with a rabbit HRP-conjugated secondary antibody (1:5000) in BSA for 1 hour at room temperature and signals were detected on film using ECL. FIG. 11C represents CHO-CAB cells and FIG. 11D represents H4 cells expressing APP^SW.

APP = APP processing (mature APP, αCTF, βCTF) by western blot; format: cell-based, human; conditions: CHO-CAB
[2] = system: CHO cells stably expressing human wild type APP^751 (CHO-7W); assay: Cell proliferation assay in APP-expressing CHO cells; format: cell-based, Chinese Hamster
From the text: For proliferation assays, 1×10^4 cells were deposited into 24-well plates and treated with vehicle (ethanol or DMSO) or with various amounts of DIF-1 or DIF-3 for a period of 4 days. Cells were harvested after each day by trypsin/EDTA treatment, stained with an equal volume of 0.05% Trypan blue and enumerated in triplicate twice using a haemocytometer. Dead cells are stained blue, but live cells with intact cell membranes are not coloured. Data represents the mean cell number±the standard deviation for at least 3 separate experiments.
The levels of secreted Aβ from CHO-7W cells stably overexpressing APP^751 and CHO-CAB cells that overexpress APP^751 and human BACE1 was quantified by ELISA and viewed by western blot using the monoclonal anti-APP antibody (6E10) that recognizes residues 1-17 of Aβ. […] Since DIF-1 exerts a cytostatic effect, the cell number was counted for all treatments upon removal of the conditioned media and used to normalize the levels of Aβ. […] The concentration of Aβ40 and Aβ42 was subsequently detected in triplicate using the β-Amyloid 1-40 or 1-42 Colorimetric ELISA kit (Biosource International, Inc.) according to the manufacturer's instructions.
Cells seeded on a 6-well plate were incubated with various concentrations of DIF-1. Cells were harvested by the trypsin/EDTA treatment at the times indicated and counted with a haemocytometer. […]

For `CCCCCC(=O)c1c(O)c(Cl)c(OC)c(Cl)c1O` [DIF-1, 1-[3,5-dichloro-2,6-dihydroxy-4-methoxyphenyl]-1-hexanone], the “ER structure (PDI marker)” value (CHO-CAB cells) was “disruption in the structure of the ER”, the “subcellular distribution of APP” value (CHO-CAB cells) was “enriched around the nuclear periphery” and the “amount of T668 phosphorylated APP CTFs” value [1] was “large reduction in the amount of T668 phosphorylated APP CTFs”. The “effect on lactacystin-induced CTF accumulation” value (APP; 30 μM DIF-1 with 10 μM lactacystin) was “greatly reduced the effect of lactacystin”, the “effect on ALLN-induced CTF accumulation” value (APP; DIF-1 with 10 μM ALLN) was “reduced the effect of ALLN on APP processing” and the “total cell number of vehicle treated cells higher than DIF-1 treated cells” value ([2]; 25 μM, after 20 hours, CHO-7W and CHO-CAB) was about 10%. The “antiproliferative effect in CHO-7W compared to naïve cells (value in brackets, quantity not named)” value ([2]; CHO-7W) was 30.6%±1.3.
